Test results taken from publication PMC10045663, “Synthesis, In Vitro Biological Evaluation of Antiproliferative and Neuroprotective Effects and In Silico Studies of Novel 16E-Arylidene-5α,6α-epoxyepiandrosterone Derivatives” (Biomedicines, 2023).

What was measured:
Format in all cases: cell-based
[1] = test system: PNT1A (normal prostate cells); assay: MTT cell proliferation assay, PNT1A cells; conditions: 72 h, non-tumoral cells, read-out: Estimated IC50, PNT1A
[2] = test system: LNCaP cells (androgen-dependent prostatic cancer); assay: MTT cell proliferation assay, LNCaP cells; conditions: 72 h
[3] = test system: N27 (rat dopaminergic neuronal cells); assay: MTT cell proliferation assay, N27 cells; conditions: 72 h, non-tumoral cells, read-out: Estimated IC50, N27
[4] = test system: MCF-7 cells; assay: Immunocytochemistry assay, Ki67 staining; conditions: 48 h
Method: MCF-7 cells were trypsinized and counted by the trypan-blue exclusion assay, and then cells were seeded with an initial density of 3 × 10^4 cells/mL in 24-well culture plates (Nunc, Apogent, Denmark) containing circular coverslips of 10 mm diameter. Following seeding (48 h), cells were treated with 1 and 10 µM concentrations of 5-FU, as positive controls, and steroid 19 for 48 h. Untreated cells were used as a negative control. After this period, photograph shots were acquired at an optical microscope coupled with a digital camera (Supplementary Material, S2). Subsequently, the medium was removed, and cells were fixed with 10% formalin (15 min, room temperature). After fixation, cells were washed three times with PBS, permeabilized, and blocked for non-specific binding sites for 1 h with 0.5% Triton X-100 and 6% BSA at room temperature. Cells were incubated at 4 °C with 30 μL/coverslip of primary antibody, rabbit polyclonal anti-Ki67 (1:50, Abcam Plc.), prepared in 0.3% BSA and 0.1% Triton X-100, overnight. Then, cells were washed three times with PBS and incubated for 1 h, at room temperature, with 30 μL/coverslip of a solution containing the secondary antibody, Alexa Fluor 488 donkey anti-rabbit (1:200, Life Technologies), and the nuclear marker Hoechst-33342 (1:500, Life Technologies) prepared in PBS. Lastly, the coverslips were washed three times with PBS, mounted on a drop of the fluoroshield mounting medium (Abcam, Plc.) on a microscope slide, and left to dry for 24 h. Photomicrographs were taken using an Axio Imager A1 microscope (Carl Zeiss, Göttingen, Germany) with the 40 × objective.

[5] = test system: all cell lines (NHDF, PNT1A, N27, LNCaP, PC-3, MCF-7); assay: MTT preliminary screening, all cell lines taken together; conditions: 50 µM, 72 h
Method: LNCaP, PC-3, MCF-7, PNT1A, N27, and NHDF cells were obtained from the American Type Culture Collection (ATCC; Manassas, VA, USA) and were cultured in 75 cm^2 culture flasks at 37 °C in a humidified air incubator with 5% CO2. LNCaP, PC-3, PNT1A, and N27 cells, respectively, were cultured in RPMI 1640 medium (Sigma-Aldrich, Inc. St. Louis, MO, USA) with 10% fetal bovine serum (FBS; Sigma-Aldrich, Inc. St. Louis, MO, USA) and 1% of the antibiotic mixture of 10,000 U/mL penicillin G and […] streptomycin (Sp, Sigma-Aldrich, Inc. St. Louis, MO, USA). MCF-7 cells were cultured in DMEM medium (Sigma-Aldrich, Inc. St. Louis, MO, USA) supplemented with 10% fetal bovine serum (FBS; Sigma-Aldrich, Inc. St. Louis, MO, USA) and 1% antibiotic/antimycotic (10,000 U/mL penicillin G, […] streptomycin, and 25 µg/mL amphotericin B: Ab, Sigma-Aldrich, Inc. St. Louis, MO, USA). Finally, NHDF cells were cultured in RPMI 1640 medium supplemented with 10% FBS, 2 mM L-glutamine, 10 mM HEPES, 1 mM sodium pyruvate, and 1% of the antibiotic/antimycotic Ab, and these cells were used in passages 10th to 14th. For all cell types, the medium was renewed every 2 days until cells nearly reached the confluence state. When cells reach approximately 90–95% confluence, they are gently detached by trypsinization (trypsin-EDTA solution: 0.125 g/L of trypsin and 0.02 g/L of EDTA). Before each experiment, viable cells were counted in a Neubauer chamber by a trypan-blue exclusion assay and adequately diluted in the appropriate complete cell culture medium.
All tested compounds were dissolved in dimethyl sulfoxide (DMSO; Sigma-Aldrich, Inc. St. Louis, MO, USA) at a concentration of 10 mM and stored at 4 °C. From the mother-solutions, the diluted solutions of the compounds, in different concentrations, were prepared in the respective complete culture medium before each experiment.
After reaching a confluence state, cells were trypsinized and counted by the trypan-blue exclusion assay and then seeded with an initial density of 2 × 10^4 cells/mL in 96-well culture plates (Nunc, Apogent, Denmark) and left to adhere and grow for 48 h. Subsequently, the medium was removed, and the cells were treated with compound solutions (10 and 50 µM for preliminary studies and 0.01, 0.1, 1, 10, 50, and 100 µM for concentration-response studies) in complete culture medium for 72 h. 5-Fluorouracil (5-FU) was used as a positive control, and untreated cells were used as the negative control. Compounds leading to cell proliferation relative to control clearly below 50%, at 10 µM, or clearly below 25%, at 50 µM, in the screening studies were selected to concentration-response studies in tumoral cell lines. Each experiment was performed in quadruplicate and independently at least two times. The in vitro antiproliferative effects were evaluated by the MTT assay (Sigma-Aldrich, Inc. St. Louis, MO, USA). After the incubation period, the medium was removed, and 100 µL of phosphate buffer saline (PBS, NaCl 137 mM; KCl 2.7 mM; Na2HPO4 10 mM; and KH2PO4 1.8 mM in deionized water with a pH adjusted to 7.4) were used to wash the cells. Then, 100 µL of the MTT solution (5 mg/mL) was prepared in the appropriate serum-free medium and added to each well, followed by incubation for 4 h at 37 °C. Hereafter, the MTT containing medium was removed, and the formazan crystals were dissolved in DMSO. Then, the absorbance was measured at 570 nm using a xMarkTM microplate spectrophotometer from BIO-RAD Laboratories. Cell viability values were expressed as percentages relative to the negative control.

[6] = test system: MCF-7 cells; assay: PI incorporation (propidium iodide staining); conditions: 48 h
Method: After 48 h of being seeded at the same conditions explained in the previous (Section 2.2.4), MCF-7 cells were treated with the steroidal derivatives 19 and 5-FU at 1 and 10 µM and maintained in culture for 48 h. Untreated cells were also used as a negative control. Subsequently, cells were incubated with 20 µL/per well of a propidium iodide solution (PI; 1 mg/mL in PBS; Sigma-Aldrich Co. LLC) for 25 min at 37 °C. Then, the medium was removed, and the cells were fixed with 10% formalin for 15 min at room temperature. Cells were washed three times with PBS and incubated with 30 µL/per coverslip of Hoechst-33342 (1:500) for 10 min. After incubation, cells were washed three times with PBS. Coverslips were mounted on a drop of the fluoroshield mounting medium on a microscope slide, left to dry for 24 h, and then visualized in a Zeiss Axio Imager A1 microscope with the 40× objective.

- IC50 ([2]; MTT, tumoral cells, read-out: Estimated IC50, LNCaP): 12.8 µM
- percentage of PI incorporation compared with the positive control (5-FU) ([6]; MCF-7, 10 µM): about three times
Substance: (E)-16-(2,3-Dichlorobenzylidene)-3-hydroxy-5α ,6α -epoxy-10,13-dimethyl-1,3,4,7,8,9,10,11,12,13,15,16-dodecahydro-2H-cyclopenta[α ]phenanthren-17(14H)-one [Compound 19]
- IC50 [1]: 12.8 µM
- effect on LNCaP cell proliferation ([2]; LNCaP, 10 µM): no relevant effects
- decrease in LNCaP cell proliferation ([2]; LNCaP, 50 µM): higher than 75%
- IC50 [3]: 13.3 µM
- Ki67-positive cells relative to control ([4]; MCF-7, 1 µM): none of the compounds significantly affected
- Ki67-positive cells relative to control ([4]; MCF-7, 10 µM): statistically significant decrease
- relative cell proliferation [5]: ≤ 50%
- PI-positive cells relative to the negative control ([6]; MCF-7, 1 µM): no significant effect
- PI-positive cells relative to the negative control ([6]; MCF-7, 10 µM): significantly increase
